One experiment addresses T1, PI3Kβ (Homo sapiens, UniProt P42338).
T1 construct: endogenous in cells; host or cells: Jurkat (ATCC TIB-152, clone E6-1) and Ramos (ATCC CRL-1596), 1:1 lysate mix
Kind of experiment: kinobeads assay, PI3Kβ. The class given is binding. The settings on record: 1:1 mix of Jurkat and Ramos cell lysates, read-out: Inhibition values (IC50 in μM) as determined in the kinobeads assay, PI3Kβ. The procedure: (§1) The compounds of the present invention as described were tested in the mTOR kinobeads assay as described below. Briefly, test compounds (at various concentrations) and the affinity matrix (1:1 mixture of beads with immobilized phenylthiazole ligand 1 and beads with immobilized phenylmorpholin-chromen ligand; WO 2009/098021) were added to cell lysate aliquots and allowed to bind to the proteins in the lysate sample. After the incubation time the beads with captured proteins were separated from the lysate. Bound proteins were then eluted and the presence of mTOR, PI3Kα, PI3Kβ, PI3Kγ, PI3Kδ and DNA-dependent protein kinase (DNA-PK) was detected and quantified using a specific antibody in a dot blot procedure and the Odyssey infrared detection system. Dose response curves for individual kinases were generated and IC50 values calculated. Kinobeads assays for PI3 kinases (WO-A 2008/015013) and for kinase selectivity profiling (WO 2009/098021) have been previously described.
(§2) Washing of Affinity Matrix
(§3) The affinity matrix was washed two times with 15 ml of 1×DP buffer containing 0.2% NP40 (IGEPAL® CA-630, Sigma, #13021) and then resupended in 5.5 ml of 1×DP buffer containing 0.2% NP40 (10% beads slurry).
(§4) 5×DP buffer: 250 mM Tris-HCl pH 7.4, 25% Glycerol, 7.5 mM MgCl2, 750 mM NaCl, 5 mM Na3VO4, filter the 5×-lysis buffer through 0.22 μm filter and store in aliquots at −80° C. The 5×DP buffer is diluted to 1×DP buffer containing 1 mM DTT and 25 mM NaF.
(§5) Preparation of Test Compounds
(§6) Stock solutions of test compounds were prepared in DMSO. In a 96 well plate 30 μl solution of diluted test compounds at 5 mM in DMSO were prepared. Starting with this solution a 1:3 dilution series (9 steps) was prepared. For control experiments (no test compound) a buffer containing 2% DMSO was used. Compound Pi-103 (Calbiochem catalogue number 528100) served as a positive control.
(§7) Cell Culture and Preparation of Cell Lysates
(§8) Jurkat cells (ATCC catalogue number TIB-152 Jurkat, clone E6-1) and Ramos cells (ATCC number CRL-1596) were grown in 1 litre Spinner flasks (Integra Biosciences, #182101) in suspension in RPMI 1640 medium (Invitrogen, #21875-034) supplemented with 10% Fetal Bovine Serum (Invitrogen) at a density between 0.15×10^6 and 1.2×10^6 cells/ml. Cells were harvested by centrifugation, washed once with 1×PBS buffer (Invitrogen, #14190-094) and cell pellets were frozen in liquid nitrogen and subsequently stored at −80° C.
(§9) Cells were homogenized in a Potter S homogenizer in lysis buffer: 50 mM Tris-HCl, 0.8% NP40, 5% glycerol, 150 mM NaCl, 1.5 mM MgCl2, 25 mM NaF, 1 mM sodium vanadate, 1 mM DTT, pH 7.5. One complete EDTA-free tablet (protease inhibitor cocktail, Roche Diagnostics, 1873580) per 25 ml buffer was added. The material was dounced 10 times using a mechanized POTTER S, transferred to 50 ml falcon tubes, incubated for 30 minutes on ice and spun down for 10 min at 20,000 g at 4° C. (10,000 rpm in Sorvall SLA600, precooled). The supernatant was transferred to an ultracentrifuge (UZ)-polycarbonate tube (Beckmann, 355654) and spun for 1 hour at 100.000 g at 4° C. (33.500 rpm in Ti50.2, precooled). The supernatant was transferred again to a fresh 50 ml falcon tube, the protein concentration was determined by a Bradford assay (BioRad) and samples containing 50 mg of protein per aliquot were prepared. The samples were immediately used for experiments or frozen in liquid nitrogen and stored frozen at −80° C.
(§10) Cell lysate (approximately 50 mg protein per plate) was thawed in a water bath at room temperature and then kept on ice. To the thawed cell lysate 1×DP 0.8% NP40 buffer containing protease inhibitors (1 tablet for 25 ml buffer; EDTA-free protease inhibitor cocktail; Roche Diagnostics 1873580) was added in order to reach a final protein concentration of 5 mg/ml total protein. For the kinobeads experiment a 1:1 mix of Jurkat and Ramos cell lysates was used. The diluted cell lysate was stored on ice. […]

Another experiment concerns the target T2, PI3Kδ (Homo sapiens, UniProt O00329).
T2 construct: endogenous in cells; host or cells: Jurkat (ATCC TIB-152, clone E6-1) and Ramos (ATCC CRL-1596), 1:1 lysate mix
Kind of experiment: kinobeads assay, PI3Kδ. The settings on record: 1:1 mix of Jurkat and Ramos cell lysates, read-out: Inhibition values (IC50 in μM) as determined in the kinobeads assay, PI3Kδ. It is filed as binding. As to the method:
as §1, §2, §3, §4, §5, §6, §7, §8, §9, §10

The target of experiment [1] is T3, DNA-dependent protein kinase (DNA-PK) (Homo sapiens, UniProt P78527).
T3 construct: endogenous in cells; host or cells: Jurkat (ATCC TIB-152, clone E6-1) and Ramos (ATCC CRL-1596), 1:1 lysate mix
In words: kinobeads assay, DNA-PK. The class given is binding. The settings on record: 1:1 mix of Jurkat and Ramos cell lysates, read-out: Inhibition values (IC50 in μM) as determined in the kinobeads assay, DNA-PK. The procedure: as §1, §2, §3, §4, §5, §6, §7, §8, §9, §10

The target of the next experiment is T4, PI3Kγ (Homo sapiens, UniProt P48736).
T4 construct: endogenous in cells; host or cells: Jurkat (ATCC TIB-152, clone E6-1) and Ramos (ATCC CRL-1596), 1:1 lysate mix
In words: kinobeads assay, PI3Kγ. The class given is binding. The settings on record: 1:1 mix of Jurkat and Ramos cell lysates, read-out: Inhibition values (IC50 in μM) as determined in the kinobeads assay, PI3Kγ. As to the method: as §1, §2, §3, §4, §5, §6, §7, §8, §9, §10

The next experiment deals with T5, PI3Kα (Homo sapiens, UniProt P42336).
T5 construct: endogenous in cells; host or cells: Jurkat (ATCC TIB-152, clone E6-1) and Ramos (ATCC CRL-1596), 1:1 lysate mix
In words: kinobeads assay, PI3Kα. The class given is binding. The settings on record: 1:1 mix of Jurkat and Ramos cell lysates, read-out: Inhibition values (IC50 in μM) as determined in the kinobeads assay, PI3Kα. The procedure:
as §1, §2, §3, §4, §5, §6, §7, §8, §9, §10

For the next experiment, the target named is T6, mTOR (Homo sapiens, UniProt P42345).
T6 construct: endogenous in cells; host or cells: Jurkat (ATCC TIB-152, clone E6-1) and Ramos (ATCC CRL-1596), 1:1 lysate mix
In words: mTOR kinobeads assay (competition binding in cell lysate, dot blot detection). The settings on record: 1:1 mix of Jurkat and Ramos cell lysates, read-out: Inhibition values (IC50 in μM) as determined in the kinobeads assay, mTor. The procedure:
Determination of the Effect of the Compounds According to the Invention on mTOR
as §1, §2, §3, §4, §5, §6, §7, §8, §9
Cell lysate (approximately 50 mg protein per plate) was thawed in a water bath at room temperature and then kept on ice. To the thawed cell lysate 1×DP 0.8% NP40 buffer containing protease inhibitors (1 tablet for 25 ml buffer; EDTA-free protease inhibitor cocktail; Roche Diagnostics 1873580) was added in order to reach a final protein concentration of 5 mg/ml total protein. For the kinobeads experiment a 1:1 mix of Jurkat and Ramos cell lysates was used. […]

Some results are limits rather than exact numbers.

T3 sequence (P78527 whole entry): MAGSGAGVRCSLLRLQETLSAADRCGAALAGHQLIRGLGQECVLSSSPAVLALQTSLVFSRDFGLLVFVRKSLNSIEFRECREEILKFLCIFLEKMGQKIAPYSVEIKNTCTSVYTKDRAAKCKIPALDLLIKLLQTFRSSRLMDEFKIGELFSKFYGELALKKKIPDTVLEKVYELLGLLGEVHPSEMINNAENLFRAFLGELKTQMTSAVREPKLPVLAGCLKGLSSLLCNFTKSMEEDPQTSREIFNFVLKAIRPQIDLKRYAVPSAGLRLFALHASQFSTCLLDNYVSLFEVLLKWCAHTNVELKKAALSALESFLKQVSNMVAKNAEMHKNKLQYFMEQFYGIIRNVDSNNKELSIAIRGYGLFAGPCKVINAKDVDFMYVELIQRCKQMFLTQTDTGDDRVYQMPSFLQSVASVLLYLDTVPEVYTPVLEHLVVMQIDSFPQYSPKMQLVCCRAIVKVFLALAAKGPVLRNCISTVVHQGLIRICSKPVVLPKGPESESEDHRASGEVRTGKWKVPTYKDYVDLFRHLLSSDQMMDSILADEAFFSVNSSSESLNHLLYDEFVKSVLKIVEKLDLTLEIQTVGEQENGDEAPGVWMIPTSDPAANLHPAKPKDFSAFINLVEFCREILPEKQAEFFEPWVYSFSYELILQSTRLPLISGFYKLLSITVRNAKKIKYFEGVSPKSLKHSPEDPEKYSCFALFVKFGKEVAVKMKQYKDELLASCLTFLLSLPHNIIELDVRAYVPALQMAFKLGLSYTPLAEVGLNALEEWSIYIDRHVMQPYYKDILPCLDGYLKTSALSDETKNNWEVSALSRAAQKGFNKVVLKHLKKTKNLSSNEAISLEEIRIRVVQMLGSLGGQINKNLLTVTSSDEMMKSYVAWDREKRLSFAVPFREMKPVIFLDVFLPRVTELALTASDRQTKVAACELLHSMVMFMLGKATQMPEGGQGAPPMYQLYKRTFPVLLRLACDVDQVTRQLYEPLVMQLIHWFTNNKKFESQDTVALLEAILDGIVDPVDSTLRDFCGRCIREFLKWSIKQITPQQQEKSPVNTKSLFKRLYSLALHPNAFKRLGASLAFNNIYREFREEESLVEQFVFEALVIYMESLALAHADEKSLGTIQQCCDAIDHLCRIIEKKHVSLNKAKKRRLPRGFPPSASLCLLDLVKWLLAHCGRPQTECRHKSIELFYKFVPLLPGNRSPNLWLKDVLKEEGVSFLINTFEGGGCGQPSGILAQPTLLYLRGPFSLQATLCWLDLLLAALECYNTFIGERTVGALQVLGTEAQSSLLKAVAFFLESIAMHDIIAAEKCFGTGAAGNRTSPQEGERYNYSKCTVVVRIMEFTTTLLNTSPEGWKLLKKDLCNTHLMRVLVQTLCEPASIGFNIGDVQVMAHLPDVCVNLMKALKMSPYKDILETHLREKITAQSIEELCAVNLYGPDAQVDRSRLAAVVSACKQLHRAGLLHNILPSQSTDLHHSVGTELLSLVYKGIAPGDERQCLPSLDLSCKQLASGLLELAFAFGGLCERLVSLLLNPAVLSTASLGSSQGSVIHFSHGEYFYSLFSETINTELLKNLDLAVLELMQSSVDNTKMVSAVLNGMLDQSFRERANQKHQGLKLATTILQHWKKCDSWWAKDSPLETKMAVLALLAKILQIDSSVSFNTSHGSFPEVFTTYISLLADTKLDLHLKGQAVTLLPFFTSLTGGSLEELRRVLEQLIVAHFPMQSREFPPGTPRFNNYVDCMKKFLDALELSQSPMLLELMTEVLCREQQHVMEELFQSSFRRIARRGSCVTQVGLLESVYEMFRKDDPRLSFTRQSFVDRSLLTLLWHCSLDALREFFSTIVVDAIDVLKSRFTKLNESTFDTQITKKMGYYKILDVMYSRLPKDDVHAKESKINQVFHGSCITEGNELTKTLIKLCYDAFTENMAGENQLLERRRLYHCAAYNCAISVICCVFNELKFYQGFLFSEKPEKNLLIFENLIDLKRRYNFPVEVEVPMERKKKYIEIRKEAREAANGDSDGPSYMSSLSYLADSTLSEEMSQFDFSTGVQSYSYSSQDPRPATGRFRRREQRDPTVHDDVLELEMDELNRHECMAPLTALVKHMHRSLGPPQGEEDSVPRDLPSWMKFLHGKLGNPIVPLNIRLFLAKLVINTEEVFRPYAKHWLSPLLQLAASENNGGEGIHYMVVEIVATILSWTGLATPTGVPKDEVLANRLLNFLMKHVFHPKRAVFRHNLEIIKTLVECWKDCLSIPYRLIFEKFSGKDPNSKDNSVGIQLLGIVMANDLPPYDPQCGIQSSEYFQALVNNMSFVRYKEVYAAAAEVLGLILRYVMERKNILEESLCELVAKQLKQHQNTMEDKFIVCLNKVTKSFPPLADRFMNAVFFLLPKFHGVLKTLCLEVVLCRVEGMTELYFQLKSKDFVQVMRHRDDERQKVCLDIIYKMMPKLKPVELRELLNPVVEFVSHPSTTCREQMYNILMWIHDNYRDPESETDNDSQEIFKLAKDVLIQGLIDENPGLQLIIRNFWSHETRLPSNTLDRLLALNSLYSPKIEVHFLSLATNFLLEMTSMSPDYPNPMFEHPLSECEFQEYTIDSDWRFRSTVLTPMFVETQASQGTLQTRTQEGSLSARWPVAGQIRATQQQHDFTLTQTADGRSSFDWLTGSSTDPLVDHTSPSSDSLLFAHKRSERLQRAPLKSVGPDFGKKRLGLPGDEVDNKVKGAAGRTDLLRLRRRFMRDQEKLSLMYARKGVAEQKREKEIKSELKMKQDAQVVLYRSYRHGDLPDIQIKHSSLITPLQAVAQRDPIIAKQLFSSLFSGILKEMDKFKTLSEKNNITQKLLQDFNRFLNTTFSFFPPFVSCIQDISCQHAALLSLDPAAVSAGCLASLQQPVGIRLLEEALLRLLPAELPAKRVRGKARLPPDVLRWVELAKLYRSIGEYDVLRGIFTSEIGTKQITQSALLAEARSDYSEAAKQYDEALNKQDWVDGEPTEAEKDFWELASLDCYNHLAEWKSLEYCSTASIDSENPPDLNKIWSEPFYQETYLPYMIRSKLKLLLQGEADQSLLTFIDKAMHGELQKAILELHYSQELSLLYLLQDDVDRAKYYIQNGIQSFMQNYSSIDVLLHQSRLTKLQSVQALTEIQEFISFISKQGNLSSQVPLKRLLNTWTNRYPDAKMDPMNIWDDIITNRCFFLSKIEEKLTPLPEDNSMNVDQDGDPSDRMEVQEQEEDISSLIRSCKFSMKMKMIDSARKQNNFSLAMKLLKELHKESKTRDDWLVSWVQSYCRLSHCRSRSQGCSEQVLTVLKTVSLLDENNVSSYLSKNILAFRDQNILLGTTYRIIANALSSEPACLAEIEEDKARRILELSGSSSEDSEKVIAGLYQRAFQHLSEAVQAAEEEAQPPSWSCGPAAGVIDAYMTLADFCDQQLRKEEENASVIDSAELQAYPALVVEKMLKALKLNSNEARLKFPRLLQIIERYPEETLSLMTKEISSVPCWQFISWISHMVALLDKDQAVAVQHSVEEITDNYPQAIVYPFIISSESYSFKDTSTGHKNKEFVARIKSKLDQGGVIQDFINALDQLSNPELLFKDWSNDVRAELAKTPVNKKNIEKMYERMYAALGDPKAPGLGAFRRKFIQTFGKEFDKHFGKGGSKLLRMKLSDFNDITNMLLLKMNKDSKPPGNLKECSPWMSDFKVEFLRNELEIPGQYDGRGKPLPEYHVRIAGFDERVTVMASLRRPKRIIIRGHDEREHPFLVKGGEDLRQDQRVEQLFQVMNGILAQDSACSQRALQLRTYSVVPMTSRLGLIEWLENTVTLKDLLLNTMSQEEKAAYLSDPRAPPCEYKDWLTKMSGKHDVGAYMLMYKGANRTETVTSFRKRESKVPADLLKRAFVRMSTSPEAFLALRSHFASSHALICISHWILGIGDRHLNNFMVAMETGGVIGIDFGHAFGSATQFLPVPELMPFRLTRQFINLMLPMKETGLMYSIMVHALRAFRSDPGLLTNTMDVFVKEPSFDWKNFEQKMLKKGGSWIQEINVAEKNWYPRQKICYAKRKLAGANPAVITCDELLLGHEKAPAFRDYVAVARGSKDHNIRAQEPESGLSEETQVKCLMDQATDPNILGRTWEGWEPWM

By IC50 is commonly meant the concentration that inhibits the measured activity by half. As for `CC(C)N1Cc2nc(N3CCOC[C@@H]3C)nc(-c3ccc(NC(=O)NC4CC4)cc3)c2C1` [Example 13, (S)-1-cyclopropyl-3-(4-(6-isopropyl-2-(3-methylmorpholino)-6,7-dihydro-5H-pyrrolo[3,4-d]pyrimidin-4-yl)phenyl)urea], the IC50 on PI3Kβ was above 100 µM; at PI3Kδ it was above 100 µM; in experiment [1], above 100 µM; at PI3Kγ, above 100 µM; at PI3Kα it was above 100 µM; on mTOR, 0.1 to 1 µM.

Consider `C[C@H]1COCCN1c1nc2c(c(-c3ccc(NC(=O)NC4CC4)cc3)n1)CN(C1CC1)C2` [Example 14, (S)-1-cyclopropyl-3-(4-(6-cyclopropyl-2-(3-methylmorpholino)-6,7-dihydro-5H-pyrrolo[3,4-d]pyrimidin-4-yl)phenyl)urea], for which the half-maximal inhibitory concentration (IC50) at PI3Kβ was above 100 µM; on PI3Kδ, above 100 µM; in experiment [1], above 100 µM; on PI3Kγ it was above 100 µM; at PI3Kα, above 100 µM; on mTOR, 1 to 10 µM.

`C[C@H]1COCCN1c1nc2c(c(-c3ccc(NC(=O)NC4CC4)cc3)n1)CN(S(C)(=O)=O)C2` [Example 15, (S)-1-cyclopropyl-3-(4-(2-(3-methylmorpholino)-6-(methylsulfonyl)-6,7-dihydro-5H-pyrrolo[3,4-d]pyrimidin-4-yl)phenyl)urea]: the IC50 was above 100 µM at PI3Kβ; above 100 µM on PI3Kδ; above 100 µM in experiment [1]; above 100 µM at PI3Kγ; above 100 µM on PI3Kα; 0.1 to 1 µM at mTOR.

Take `C[C@H]1COCCN1C(=O)Nc1ccc(-c2nc(N3CCOC[C@@H]3C)nc3c2CNC3)cc1` [Example 16, (S)-3-methyl-N-(4-(2-((S)-3-methylmorpholino)-6,7-dihydro-5H-pyrrolo[3,4-d]pyrimidin-4-yl)phenyl)morpholine-4-carboxamide]: the IC50 is above 100 µM on PI3Kβ; above 100 µM on PI3Kδ; above 100 µM in experiment [1]; above 100 µM on PI3Kγ; above 100 µM at PI3Kα; 1 to 10 µM on mTOR.

Take `CCNC(=O)N1Cc2nc(N3CCOC[C@@H]3C)nc(-c3ccc(NC(=O)NC4CC4)cc3)c2C1` [Example 17, (S)-4-(4-(3-cyclopropylureido)phenyl)-N-ethyl-2-(3-methylmorpholino)-5H-pyrrolo[3,4-d]pyrimidine-6(7H)-carboxamide]: the 50% inhibitory concentration (IC50) is above 100 µM on PI3Kβ; above 100 µM on PI3Kδ; above 100 µM in experiment [1]; above 100 µM at PI3Kγ; 10 to 100 µM on PI3Kα; 1 to 10 µM at mTOR.

For `O=C(Nc1ccc(-c2nc(N3CC4CCC(C3)O4)nc3c2CNC3)cc1)NC1CC1` [Example 18, 1-(4-(2-(8-oxa-3-azabicyclo[3.2.1]octan-3-yl)-6,7-dihydro-5H-pyrrolo[3,4-d]pyrimidin-4-yl)phenyl)-3-cyclopropylurea], the concentration for half-maximal inhibition (IC50) at PI3Kβ is above 100 µM; at PI3Kδ, above 100 µM; in experiment [1], 10 to 100 µM; at PI3Kγ, above 100 µM; on PI3Kα, above 100 µM; on mTOR, 0.1 to 1 µM.

Consider `C[C@H]1COCCN1c1nc2c(c(-c3ccc(NC(=O)NCCO)cc3)n1)CNC2` [Example 19, (S)-1-(2-hydroxyethyl)-3-(4-(2-(3-methylmorpholino)-6,7-dihydro-5H-pyrrolo[3,4-d]pyrimidin-4-yl)phenyl)urea], for which the 50% inhibitory concentration (IC50) was 10 to 100 µM on PI3Kβ; 10 to 100 µM on PI3Kδ; 10 to 100 µM in experiment [1]; 1 to 10 µM on PI3Kγ; 1 to 10 µM at PI3Kα; at most 0.1 µM at mTOR.

Turning to `C[C@H]1COCCN1c1nc2c(c(-c3ccc(NC(=O)NC4CC4)cc3)n1)CN(C(=O)CN(C)C)C2` [Example 20, (S)-1-cyclopropyl-3-(4-(6-(2-(dimethylamino)acetyl)-2-(3-methylmorpholino)-6,7-dihydro-5H-pyrrolo[3,4-d]pyrimidin-4-yl)phenyl)urea], the IC50 was 10 to 100 µM on PI3Kβ; 10 to 100 µM on PI3Kδ; above 100 µM in experiment [1]; above 100 µM at PI3Kγ; above 100 µM on PI3Kα; 1 to 10 µM on mTOR.

`C[C@H]1COCCN1c1nc2c(c(-c3ccc(NC(=O)NC4CC4)cc3)n1)CN(C(=O)CCN(C)C)C2` [Example 21, (S)-1-cyclopropyl-3-(4-(6-(3-(dimethylamino)propanoyl)-2-(3-methylmorpholino)-6,7-dihydro-5H-pyrrolo[3,4-d]pyrimidin-4-yl)phenyl)urea]: the IC50 on PI3Kβ was 10 to 100 µM; on PI3Kδ it was 10 to 100 µM; in experiment [1], above 100 µM; at PI3Kγ it was above 100 µM; at PI3Kα it was above 100 µM; on mTOR it was 1 to 10 µM.

For `C[C@H]1COCCN1c1nc2c(c(-c3ccc(NC(=O)NC4CC4)cc3)n1)CN(C(=O)CO)C2` [Example 22, (S)-1-cyclopropyl-3-(4-(6-(2-hydroxyacetyl)-2-(3-methylmorpholino)-6,7-dihydro-5H-pyrrolo[3,4-d]pyrimidin-4-yl)phenyl)urea], the half-inhibitory concentration (IC50) on PI3Kβ is 10 to 100 µM; at PI3Kδ, 1 to 10 µM; in experiment [1] it was above 100 µM; at PI3Kγ, 10 to 100 µM; on PI3Kα it was 10 to 100 µM; at mTOR it was 0.1 to 1 µM.

As to `C[C@H]1COCCN1c1nc2c(c(-c3ccc(NC(=O)NC4CC4)cc3)n1)CN(C(=O)CC#N)C2` [Example 23, (S)-1-(4-(6-(2-cyanoacetyl)-2-(3-methylmorpholino)-6,7-dihydro-5H-pyrrolo[3,4-d]pyrimidin-4-yl)phenyl)-3-cyclopropylurea], the IC50 at PI3Kβ is 10 to 100 µM; at PI3Kδ it was 10 to 100 µM; in experiment [1], above 100 µM; at PI3Kγ, above 100 µM; at PI3Kα it was 10 to 100 µM; at mTOR, 0.1 to 1 µM.

For the origin of these results see US20140163023A1, “DIHYDROPYRROLO PYRIMIDINE DERIVATIVES AS MTOR INHIBITORS” (Cellzome Limited, priority 2011, published 2014).
